From patent US11040028B2, “Penicinotam derivative, preparation method and use thereof” (OCEAN UNIVERSITY OF CHINA, priority 2017, dated 2021)

How the values were obtained:
Type in all cases: cell-based
[1] = test system: mouse macrophages (RAW264.7); assay: Lipopolysaccharide-induced NO secretion in macrophages (Griess); conditions: Mus musculus, RAW264.7, 24 h, RAW264.7, LPS 1 μg/ml, a/b isomers given as first/second symbol, read-out: IC50 (μM), inhibition of lipopolysaccharide-induced NO secretion in macrophages
In short: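 Absorbance at 548 nm after Griess reagent addition to culture supernatant gave NO content; inhibition rate was derived relative to blank control. Cells were mouse RAW264.7 macrophages exposed to compounds and 1 μg/ml LPS for 24 hours.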

[2] = test system: cardiac fibroblast RAT-iCell-C002; assay: Anti-fibrosis activity test: inhibition of proliferation of cardiac fibroblast RAT-iCell-C002 (CCK-8); conditions: Cardiac fibroblast, 48 h
In short: (§1)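 Read-out: absorbance at 450 nm after 2 h with CCK-8, following 48 h of compound exposure of adhered cells (2×10^4 cells/mL, 24 h attachment, 37° C, 5% CO2). Proliferation inhibition was taken relative to the blank control, and IC50 values were calculated from it.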

[3] = test system: BHK-21 cells; assay: Anti-fibrosis activity test: inhibition of BHK-21 cell proliferation (CCK-8); conditions: Mesocricetus auratus, BHK-21, 48 h
In short: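 BHK-21 cells seeded at 2×10^4 cells/mL, allowed to adhere 24 h at 37° C, 5% CO2, then exposed to compounds at graded concentrations in triplicate for 48 h. CCK-8 added for 2 h and absorbance read at 450 nm; inhibition rate taken as (1−Ai/Ao)×100% and IC50 fitted.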

[4] = test system: human lung fibroblasts HFL1; assay: Anti-fibrosis activity test: inhibition of proliferation of human lung fibroblasts HFL1 (CCK-8); conditions: Homo sapiens, HFL1, 48 h
In short: as §1

[5] = test system: human embryonic lung fibroblast IMR-90; assay: Anti-fibrosis activity test: inhibition of proliferation of human embryonic lung fibroblast IMR-90 (CCK-8)
In short: as §1

[6] = test system: human fibrosarcoma cells HT-1080; assay: Anti-fibrosis activity test: inhibition of proliferation of human fibrosarcoma cells HT-1080 (CCK-8); conditions: Homo sapiens, HT-1080, 48 h
In short: as §1

[7] = test system: human hepatic stellate cells LX-2; assay: Anti-fibrosis activity test: inhibition of proliferation of human hepatic stellate cells LX-2 (CCK-8); conditions: Homo sapiens, 48 h
In short: as §1

[8] = test system: human dermal fibroblasts CCC-ESF-1; assay: Anti-fibrosis activity test: inhibition of proliferation of human dermal fibroblasts CCC-ESF-1 (CCK-8); conditions: Fibroblast
In short: as §1

[9] = Homo sapiens, IMR-90 cells, 48 h, CCK-8
[10] = Homo sapiens, CCC-ESF-1 cells, 48 h, CCK-8
[11] = cardiac fibroblast RAT-iCell-C002, CCK-8, 48 hours
[12] = CCK-8, 48 hours after administration
[13] = human lung fibroblasts HFL1, CCK-8, 48 hours
[14] = human embryonic lung fibroblast IMR-90, CCK-8, 48 hours
[15] = human fibrosarcoma cells HT-1080, CCK-8, 48 hours
[16] = human hepatic stellate cells LX-2, CCK-8, 48 hours
[17] = human dermal fibroblasts CCC-ESF-1, CCK-8, 48 hours

Structure (SMILES)	IC50 [1] [µM]	IC50 ([2]; RAT-iCell-C002 cells, CCK-8) [mM]	IC50 ([3]; 48 h, CCK-8) [mM]	IC50 ([4]; HFL1 cells, 48 h, CCK-8) [mM]	IC50 [5, 9] [mM]	IC50 ([6]; HT-1080 cells, 48 h, CCK-8) [mM]	IC50 ([7]; LX-2, 48 h, LX-2 cells, CCK-8) [mM]	IC50 [8, 10] [mM]	IC50 [2, 11] [mM]	IC50 [3, 12] [mM]	IC50 [4, 13] [mM]	IC50 [5, 14] [mM]	IC50 [6, 15] [mM]	IC50 [7, 16] [mM]	IC50 [8, 17] [mM]
Cc1cccc2c(O)c3c(nc12)C(=O)n1cccc1-3 [Compound 779b, 11-hydroxy-7-methyl-5H-pyrrolizino[2,1-b]quinolin-5-one]	1 to 10	0.05 to 5	0.05 to 5	0.05 to 5	0.05 to 5	0.05 to 5	0.05 to 5	0.05 to 5							
O=C1c2c(n(CCO)c3ccc(F)cc3c2=O)-c2cccn21 [Compound 114a, 7-Fluoro-4-(2-hydroxyethyl)-9H-pyrrolizino[1,2-b]quinoline-9,10(4H)-dione]	1 to 10								0.05 to 5	< 0.05	0.05 to 5	0.05 to 5	0.05 to 5	0.05 to 5	0.05 to 5
N#Cc1cccc2c(=O)c3c(n(Cc4ccc(F)cc4)c12)-c1cccn1C3=O [Compound 449a, 4-(4-Fluorobenzyl)-9,10-dioxo-4,10-dihydro-9H-pyrrolizino[1,2-b]quinoline-5-carbonitrile]	1 to 10								0.05 to 5	0.05 to 5	0.05 to 5	0.05 to 5	0.05 to 5	0.05 to 5	0.05 to 5
CCOCCCOc1c2c(nc3ccccc13)C(=O)n1cccc1-2 [Compound 791b, 11-(3-ethoxypropoxy)-5H-pyrrolizino[2,1-b]quinolin-5-one]	1 to 10	0.05 to 5	0.05 to 5	0.05 to 5	0.05 to 5	0.05 to 5	0.05 to 5	0.05 to 5							
O=C1c2c(nc3ccc(F)cc3c2OCCO)-c2cccn21 [Compound 114b, 7-fluoro-9-(2-hydroxyethoxy)-10H-pyrrolizino[1,2-b]quinolin-10-one]	1 to 10								0.05 to 5	0.05 to 5	0.05 to 5	0.05 to 5	0.05 to 5	0.05 to 5	0.05 to 5
N#Cc1cccc2c1c(=O)c1c(n2Cc2ccccc2F)-c2cccn2C1=O [Compound 469a, 4-(2-Fluorobenzyl)-9,10-dioxo-4,10-dihydro-9H-pyrrolizino[1,2-b]quinoline-8-carbonitrile]	0.1 to 1								0.05 to 5	< 0.05	0.05 to 5	0.05 to 5	5 to 20	0.05 to 5	0.05 to 5
O=C1c2c(nc3c(Cl)cccc3c2OCc2ccccc2Cl)-c2cccn21 [Compound 461b, 5-chloro-9-((2-chlorobenzyl)oxy)-10H-pyrrolizino[1,2-b]quinolin-10-one]	1 to 10								0.05 to 5	0.05 to 5	0.05 to 5	0.05 to 5	0.05 to 5	0.05 to 5	0.05 to 5
O=C1c2c(n(Cc3ccc(Cl)cc3)c3c(F)cccc3c2=O)-c2cccn21 [Compound 453a, 4-(4-Chlorobenzyl)-5-fluoro-9H-pyrrolizino[1,2-b]quinoline-9,10(4H)-dione]	0.1 to 1								0.05 to 5	0.05 to 5	0.05 to 5	0.05 to 5	0.05 to 5	0.05 to 5	0.05 to 5
Cc1cc(C)c2c(=O)c3c([nH]c2c1)C(=O)n1cccc1-3 [Compound 782a, 8,10-Dimethyl-5H-pyrrolizino[2,1-b]quinoline-5,11(6H)-dione]	10 to 50	0.05 to 5	0.05 to 5	0.05 to 5	0.05 to 5	0.05 to 5	0.05 to 5	0.05 to 5							
O=C1c2c([nH]c3ccc(Cl)cc3c2=O)-c2cccn21 [Compound 180a, 7-Chloro-9H-pyrrolizino[1,2-b]quinoline-9,10(4H)-dione]	1 to 10								0.05 to 5	20 to 100	0.05 to 5	0.05 to 5	0.05 to 5	0.05 to 5	0.05 to 5
Cc1ccc2nc3c(c(O)c2c1)-c1cccn1C3=O [Compound 777b, 11-hydroxy-9-methyl-5H-pyrrolizino[2,1-b]quinolin-5-one]	1 to 10	0.05 to 5	0.05 to 5	0.05 to 5	0.05 to 5	0.05 to 5	0.05 to 5	0.05 to 5							
